Test results from the kinase profiling compilation of Christmann-Franck et al. (2016).

Tests used:
Test in all cases: KINOMEscan competition binding
Details in all cases: compound 10.0 µM
MARK1 (human) = MARK1 (human) (UniProt Q9P0L2)
AURKB (human) = AURKB (human) (UniProt Q96GD4)
WEE2 (human) = WEE2 (human) (UniProt P0C1S8)
PRKCQ (human) = PRKCQ (human) (UniProt Q04759)
PAK4 (human) = PAK4 (human) (UniProt O96013)
MELK (human) = MELK (human) (UniProt Q14680)
MAPK11 (human) = MAPK11 (human) (UniProt Q15759)
MAPK1 (human) = MAPK1 (human) (UniProt P28482)
EPHA4 (human) = EPHA4 (human) (UniProt P54764)
RPS6KA1 KD1 (human) = RPS6KA1 KD1 (human) (UniProt Q15418)
MAP3K12 (human) = MAP3K12 (human) (UniProt Q12852)
NEK9 (human) = NEK9 (human) (UniProt Q8TD19)
DYRK1B (human) = DYRK1B (human) (UniProt Q9Y463)
MUSK (human) = MUSK (human) (UniProt O15146)
PAK3 (human) = PAK3 (human) (UniProt O75914)
MLTK (human) = MLTK (human) (UniProt Q9NYL2)
HIPK1 (human) = HIPK1 (human) (UniProt Q86Z02)
MAP4K1 (human) = MAP4K1 (human) (UniProt Q92918)
ITK (human) = ITK (human) (UniProt Q08881)
DAPK1 (human) = DAPK1 (human) (UniProt P53355)
CLK1 (human) = CLK1 (human) (UniProt P49759)
FYN (human) = FYN (human) (UniProt P06241)
CaMK1 (human) = CaMK1 (human) (UniProt Q14012)
ERBB2 (human) = ERBB2 (human) (UniProt P04626)
AKT2 (human) = AKT2 (human) (UniProt P31751)
TEC (human) = TEC (human) (UniProt P42680)
[1] = target: TYK2 JH2 pseudokinase (human) (UniProt P29597)
PDGFRB (human) = PDGFRB (human) (UniProt P09619)
ACVR2B (human) = ACVR2B (human) (UniProt Q13705)
EIF2AK2 (human) = EIF2AK2 (human) (UniProt P19525)
BRSK1 (human) = BRSK1 (human) (UniProt Q8TDC3)
LTK (human) = LTK (human) (UniProt P29376)
MAPK10 (human) = MAPK10 (human) (UniProt P53779)
SYK (human) = SYK (human) (UniProt P43405)
CAMK2A (human) = CAMK2A (human) (UniProt Q9UQM7)
CSNK1D (human) = CSNK1D (human) (UniProt P48730)
RPS6KA5 KD2 (human) = RPS6KA5 KD2 (human) (UniProt O75582)
STK38L (human) = STK38L (human) (UniProt Q9Y2H1)
MYLK4 (human) = MYLK4 (human) (UniProt Q86YV6)
CHUK (human) = CHUK (human) (UniProt O15111)

LTK (human), sequence (P29376 whole entry, looked up): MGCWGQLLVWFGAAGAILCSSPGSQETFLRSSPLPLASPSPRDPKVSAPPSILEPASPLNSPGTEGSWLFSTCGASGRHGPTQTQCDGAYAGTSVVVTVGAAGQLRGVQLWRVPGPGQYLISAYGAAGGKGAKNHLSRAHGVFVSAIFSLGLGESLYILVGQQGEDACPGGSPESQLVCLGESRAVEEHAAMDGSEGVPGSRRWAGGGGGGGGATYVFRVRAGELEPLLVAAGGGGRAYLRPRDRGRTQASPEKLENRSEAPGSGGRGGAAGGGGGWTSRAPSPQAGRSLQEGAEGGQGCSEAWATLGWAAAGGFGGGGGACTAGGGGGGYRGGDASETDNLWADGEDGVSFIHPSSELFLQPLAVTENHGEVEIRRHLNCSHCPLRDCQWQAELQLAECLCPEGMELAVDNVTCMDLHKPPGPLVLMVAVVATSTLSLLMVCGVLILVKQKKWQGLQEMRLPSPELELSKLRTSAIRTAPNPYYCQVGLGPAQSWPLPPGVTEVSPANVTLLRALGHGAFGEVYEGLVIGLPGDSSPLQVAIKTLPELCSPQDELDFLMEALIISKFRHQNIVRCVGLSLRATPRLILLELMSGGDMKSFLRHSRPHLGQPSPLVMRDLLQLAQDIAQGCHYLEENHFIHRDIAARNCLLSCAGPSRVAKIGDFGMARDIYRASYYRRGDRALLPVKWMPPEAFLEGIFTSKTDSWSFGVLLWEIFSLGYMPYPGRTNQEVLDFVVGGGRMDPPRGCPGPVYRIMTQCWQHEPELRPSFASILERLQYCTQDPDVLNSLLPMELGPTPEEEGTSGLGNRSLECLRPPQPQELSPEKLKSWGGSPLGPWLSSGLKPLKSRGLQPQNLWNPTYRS
MAP3K12 (human), sequence (Q12852 whole entry, looked up): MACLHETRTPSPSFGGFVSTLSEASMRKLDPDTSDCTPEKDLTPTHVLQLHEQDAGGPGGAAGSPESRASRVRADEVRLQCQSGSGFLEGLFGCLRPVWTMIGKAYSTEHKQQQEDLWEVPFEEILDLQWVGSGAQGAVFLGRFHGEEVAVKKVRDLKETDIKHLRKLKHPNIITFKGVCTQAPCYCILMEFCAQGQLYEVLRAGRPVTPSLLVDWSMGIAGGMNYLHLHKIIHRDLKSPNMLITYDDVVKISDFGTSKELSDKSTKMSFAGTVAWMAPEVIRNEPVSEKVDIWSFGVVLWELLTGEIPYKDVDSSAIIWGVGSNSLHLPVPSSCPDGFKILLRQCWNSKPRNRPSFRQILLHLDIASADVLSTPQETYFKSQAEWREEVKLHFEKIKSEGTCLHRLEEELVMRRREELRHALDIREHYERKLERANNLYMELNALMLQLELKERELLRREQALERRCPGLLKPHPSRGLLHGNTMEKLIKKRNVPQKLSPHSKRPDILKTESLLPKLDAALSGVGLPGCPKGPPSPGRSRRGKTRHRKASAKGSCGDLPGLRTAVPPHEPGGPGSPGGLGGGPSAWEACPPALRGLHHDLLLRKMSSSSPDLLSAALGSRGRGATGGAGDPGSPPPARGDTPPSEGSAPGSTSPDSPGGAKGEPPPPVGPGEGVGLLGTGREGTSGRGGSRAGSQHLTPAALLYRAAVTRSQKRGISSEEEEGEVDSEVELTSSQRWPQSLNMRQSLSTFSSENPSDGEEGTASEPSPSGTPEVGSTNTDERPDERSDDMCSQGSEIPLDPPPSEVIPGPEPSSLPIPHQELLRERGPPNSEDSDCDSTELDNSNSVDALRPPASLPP
PDGFRB (human), sequence (P09619 whole entry, looked up): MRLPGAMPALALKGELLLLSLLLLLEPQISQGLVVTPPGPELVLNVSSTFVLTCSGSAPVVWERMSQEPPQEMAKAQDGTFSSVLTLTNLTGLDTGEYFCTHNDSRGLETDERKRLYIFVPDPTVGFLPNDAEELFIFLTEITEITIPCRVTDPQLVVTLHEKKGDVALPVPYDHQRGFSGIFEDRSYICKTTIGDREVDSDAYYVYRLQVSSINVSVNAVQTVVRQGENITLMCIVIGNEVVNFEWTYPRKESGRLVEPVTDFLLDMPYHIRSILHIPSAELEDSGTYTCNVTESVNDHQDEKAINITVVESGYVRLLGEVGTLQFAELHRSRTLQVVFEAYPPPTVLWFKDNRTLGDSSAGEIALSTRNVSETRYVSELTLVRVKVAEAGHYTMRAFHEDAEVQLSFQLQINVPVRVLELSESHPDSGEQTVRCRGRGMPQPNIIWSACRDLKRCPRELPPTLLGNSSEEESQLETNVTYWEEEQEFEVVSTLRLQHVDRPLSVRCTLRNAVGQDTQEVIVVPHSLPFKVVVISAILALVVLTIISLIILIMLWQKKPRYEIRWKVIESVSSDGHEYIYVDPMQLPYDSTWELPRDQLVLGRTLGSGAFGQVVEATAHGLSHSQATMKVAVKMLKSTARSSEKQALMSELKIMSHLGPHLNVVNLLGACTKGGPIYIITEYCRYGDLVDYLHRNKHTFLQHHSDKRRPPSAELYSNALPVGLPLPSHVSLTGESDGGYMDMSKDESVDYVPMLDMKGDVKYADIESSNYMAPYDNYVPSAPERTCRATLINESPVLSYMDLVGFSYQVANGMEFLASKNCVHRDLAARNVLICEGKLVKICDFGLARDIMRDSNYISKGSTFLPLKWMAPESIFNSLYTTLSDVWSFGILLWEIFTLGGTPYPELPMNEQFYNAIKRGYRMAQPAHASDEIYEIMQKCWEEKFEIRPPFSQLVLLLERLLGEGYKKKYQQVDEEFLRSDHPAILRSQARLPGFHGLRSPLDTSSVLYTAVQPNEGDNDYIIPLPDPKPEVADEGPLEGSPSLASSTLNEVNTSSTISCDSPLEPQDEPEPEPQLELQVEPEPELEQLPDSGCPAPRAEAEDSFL
PAK3 (human), sequence (O75914 whole entry, looked up): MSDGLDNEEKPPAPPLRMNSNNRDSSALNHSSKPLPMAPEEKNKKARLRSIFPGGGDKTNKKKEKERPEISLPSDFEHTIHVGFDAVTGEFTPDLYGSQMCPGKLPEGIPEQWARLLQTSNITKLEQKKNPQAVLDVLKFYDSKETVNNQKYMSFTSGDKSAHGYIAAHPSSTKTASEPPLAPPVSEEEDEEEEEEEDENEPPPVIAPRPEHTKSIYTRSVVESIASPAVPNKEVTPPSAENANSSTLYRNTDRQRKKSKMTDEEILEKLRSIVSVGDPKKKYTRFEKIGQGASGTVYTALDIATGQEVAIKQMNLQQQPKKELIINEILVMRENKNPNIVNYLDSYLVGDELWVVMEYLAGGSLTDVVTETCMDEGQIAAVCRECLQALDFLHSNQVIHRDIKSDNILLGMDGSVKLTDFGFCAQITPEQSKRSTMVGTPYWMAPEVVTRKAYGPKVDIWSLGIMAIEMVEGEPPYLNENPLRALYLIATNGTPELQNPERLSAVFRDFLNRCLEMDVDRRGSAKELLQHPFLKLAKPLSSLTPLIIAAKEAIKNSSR
MAPK10 (human), sequence (P53779 whole entry, looked up): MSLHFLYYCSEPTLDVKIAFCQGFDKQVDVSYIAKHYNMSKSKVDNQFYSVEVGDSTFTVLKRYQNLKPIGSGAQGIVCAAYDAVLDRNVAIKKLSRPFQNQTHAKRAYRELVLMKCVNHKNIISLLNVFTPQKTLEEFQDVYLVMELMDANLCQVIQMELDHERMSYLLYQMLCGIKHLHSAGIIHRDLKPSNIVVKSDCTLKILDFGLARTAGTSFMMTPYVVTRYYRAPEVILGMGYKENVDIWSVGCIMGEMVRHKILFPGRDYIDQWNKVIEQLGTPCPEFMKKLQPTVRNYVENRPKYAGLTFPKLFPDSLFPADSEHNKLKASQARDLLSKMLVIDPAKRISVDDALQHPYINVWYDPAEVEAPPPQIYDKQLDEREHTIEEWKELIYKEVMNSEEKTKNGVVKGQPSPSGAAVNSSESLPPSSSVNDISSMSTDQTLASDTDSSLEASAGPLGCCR
MELK (human), sequence (Q14680 whole entry, looked up): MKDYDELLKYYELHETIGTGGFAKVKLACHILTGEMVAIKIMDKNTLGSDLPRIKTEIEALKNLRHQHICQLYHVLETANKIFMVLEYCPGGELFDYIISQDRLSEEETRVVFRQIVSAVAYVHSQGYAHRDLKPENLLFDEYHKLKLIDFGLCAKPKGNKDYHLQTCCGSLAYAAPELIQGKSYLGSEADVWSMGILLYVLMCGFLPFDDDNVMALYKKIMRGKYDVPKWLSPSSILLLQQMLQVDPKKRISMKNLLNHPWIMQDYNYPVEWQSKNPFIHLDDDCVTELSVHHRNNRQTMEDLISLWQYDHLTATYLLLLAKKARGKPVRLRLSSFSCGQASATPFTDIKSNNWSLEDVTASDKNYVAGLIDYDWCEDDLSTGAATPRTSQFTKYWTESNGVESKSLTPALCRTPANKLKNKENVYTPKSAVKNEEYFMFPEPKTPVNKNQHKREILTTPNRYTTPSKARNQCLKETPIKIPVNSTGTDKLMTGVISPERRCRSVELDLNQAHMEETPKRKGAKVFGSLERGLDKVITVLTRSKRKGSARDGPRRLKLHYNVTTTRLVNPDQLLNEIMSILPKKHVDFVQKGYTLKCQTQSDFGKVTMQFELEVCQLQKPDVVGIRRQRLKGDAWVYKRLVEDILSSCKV
MAPK1 (human), sequence (P28482 whole entry, looked up): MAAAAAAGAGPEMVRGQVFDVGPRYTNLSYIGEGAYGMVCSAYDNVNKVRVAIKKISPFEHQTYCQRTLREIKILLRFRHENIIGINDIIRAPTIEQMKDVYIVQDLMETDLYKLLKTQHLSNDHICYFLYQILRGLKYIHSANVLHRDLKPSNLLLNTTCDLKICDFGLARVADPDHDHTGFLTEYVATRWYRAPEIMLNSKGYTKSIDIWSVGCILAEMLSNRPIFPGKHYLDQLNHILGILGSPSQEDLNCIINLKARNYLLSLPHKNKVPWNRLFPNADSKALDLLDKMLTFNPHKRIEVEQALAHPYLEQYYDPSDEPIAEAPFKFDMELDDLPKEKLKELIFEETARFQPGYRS

| SMILES | kinase still bound, per cent of control (MARK1 (human)) [%] | kinase still bound, per cent of control (AURKB (human)) [%] | kinase still bound, per cent of control (WEE2 (human)) [%] | kinase still bound, per cent of control (PRKCQ (human)) [%] | kinase still bound, per cent of control (PAK4 (human)) [%] | kinase still bound, per cent of control (MELK (human)) [%] | kinase still bound, per cent of control (MAPK11 (human)) [%] | kinase still bound, per cent of control (MAPK1 (human)) [%] | kinase still bound, per cent of control (EPHA4 (human)) [%] | kinase still bound, per cent of control (RPS6KA1 KD1 (human)) [%] | kinase still bound, per cent of control (MAP3K12 (human)) [%] | kinase still bound, per cent of control (NEK9 (human)) [%] | kinase still bound, per cent of control (DYRK1B (human)) [%] | kinase still bound, per cent of control (MUSK (human)) [%] | kinase still bound, per cent of control (PAK3 (human)) [%] | kinase still bound, per cent of control (MLTK (human)) [%] | kinase still bound, per cent of control (HIPK1 (human)) [%] | kinase still bound, per cent of control (MAP4K1 (human)) [%] | kinase still bound, per cent of control (ITK (human)) [%] | kinase still bound, per cent of control (DAPK1 (human)) [%] | other results |
| --- | --- | --- | --- | --- | --- | --- | --- | --- | --- | --- | --- | --- | --- | --- | --- | --- | --- | --- | --- | --- | --- |
| C=CC(=O)Nc1cccc(Oc2nc(Nc3ccc(N4CCN(C)CC4)cc3OC)ncc2Cl)c1 | 11 | 20 | 100 | 100 | 100 | 14 | 100 | 100 | 100 | 12 | 100 | 100 | 17 | 100 | 100 | 100 | 100 | 34 | 0.55 | 22 | kinase still bound, per cent of control (CLK1 (human)): 13%; kinase still bound, per cent of control (FYN (human)): 100%; kinase still bound, per cent of control (CaMK1 (human)): 100%; kinase still bound, per cent of control (ERBB2 (human)): 1.8%; kinase still bound, per cent of control (AKT2 (human)): 100%; kinase still bound, per cent of control (TEC (human)): 6.6%; kinase still bound, per cent of control [1]: 100%; kinase still bound, per cent of control (PDGFRB (human)): 11%; kinase still bound, per cent of control (ACVR2B (human)): 100%; kinase still bound, per cent of control (EIF2AK2 (human)): 100%; kinase still bound, per cent of control (BRSK1 (human)): 100%; kinase still bound, per cent of control (LTK (human)): 3.6%; kinase still bound, per cent of control (MAPK10 (human)): 13%; kinase still bound, per cent of control (SYK (human)): 100%; kinase still bound, per cent of control (CAMK2A (human)): 100%; kinase still bound, per cent of control (CSNK1D (human)): 100%; kinase still bound, per cent of control (RPS6KA5 KD2 (human)): 100%; kinase still bound, per cent of control (STK38L (human)): 100%; kinase still bound, per cent of control (MYLK4 (human)): 24%; kinase still bound, per cent of control (CHUK (human)): 100% |
| COc1cc(C(=O)NC2CCN(C)CC2)ccc1Nc1ncc2c(n1)N(C1CCCC1)CCC(=O)N2C(C)C | 100 | 100 | 100 | 100 | 100 | 100 | 100 | 100 | 100 | 100 | 100 | 100 | 100 | 100 | 100 | 100 | 100 | 100 | 100 | 100 | kinase still bound, per cent of control (CLK1 (human)): 100%; kinase still bound, per cent of control (FYN (human)): 100%; kinase still bound, per cent of control (CaMK1 (human)): 100%; kinase still bound, per cent of control (ERBB2 (human)): 100%; kinase still bound, per cent of control (AKT2 (human)): 100%; kinase still bound, per cent of control (TEC (human)): 100%; kinase still bound, per cent of control [1]: 100%; kinase still bound, per cent of control (PDGFRB (human)): 100%; kinase still bound, per cent of control (ACVR2B (human)): 100%; kinase still bound, per cent of control (EIF2AK2 (human)): 100%; kinase still bound, per cent of control (BRSK1 (human)): 100%; kinase still bound, per cent of control (LTK (human)): 100%; kinase still bound, per cent of control (MAPK10 (human)): 100%; kinase still bound, per cent of control (SYK (human)): 100%; kinase still bound, per cent of control (CAMK2A (human)): 100%; kinase still bound, per cent of control (CSNK1D (human)): 100%; kinase still bound, per cent of control (RPS6KA5 KD2 (human)): 100%; kinase still bound, per cent of control (STK38L (human)): 100%; kinase still bound, per cent of control (MYLK4 (human)): 100%; kinase still bound, per cent of control (CHUK (human)): 100% |
| Nc1ccc(-c2ccc3ncc4ccc(=O)n(-c5cccc(C(F)(F)F)c5)c4c3c2)cn1 | 100 | 89 | 100 | 100 | 100 | 50 | 83 | 100 | 100 | 100 | 100 | 100 | 97 | 100 | 100 | 65 | 79 | 100 | 100 | 91 | kinase still bound, per cent of control (CLK1 (human)): 12%; kinase still bound, per cent of control (FYN (human)): 92%; kinase still bound, per cent of control (CaMK1 (human)): 82%; kinase still bound, per cent of control (ERBB2 (human)): 97%; kinase still bound, per cent of control (AKT2 (human)): 100%; kinase still bound, per cent of control (TEC (human)): 100%; kinase still bound, per cent of control [1]: 6.3%; kinase still bound, per cent of control (PDGFRB (human)): 34%; kinase still bound, per cent of control (ACVR2B (human)): 97%; kinase still bound, per cent of control (EIF2AK2 (human)): 70%; kinase still bound, per cent of control (BRSK1 (human)): 88%; kinase still bound, per cent of control (LTK (human)): 100%; kinase still bound, per cent of control (MAPK10 (human)): 78%; kinase still bound, per cent of control (SYK (human)): 100%; kinase still bound, per cent of control (CAMK2A (human)): 83%; kinase still bound, per cent of control (CSNK1D (human)): 63%; kinase still bound, per cent of control (RPS6KA5 KD2 (human)): 100%; kinase still bound, per cent of control (STK38L (human)): 100%; kinase still bound, per cent of control (MYLK4 (human)): 97%; kinase still bound, per cent of control (CHUK (human)): 55% |
